One block for each compound: values may come before it.
Assays:
[1] = target: T1, CYP2D6 (Homo sapiens, UniProt P10635); assay: CYP inhibition assay in human liver microsome; format: in vitro ADME; conditions: human liver microsomes, probe dextromethorphan, dextromethorphan substrate, percentage inhibition <0: not or weak inhibitor, read-out: CYP 2D6 inhibition % @ 10 μM
T1 construct: tissue BD-Gentest 452117; host or cells: human liver microsomes
Method: This is a high throughput screening assay used for assessment of reversible inhibition of CYP2D6 activity of test compounds in human liver microsome (HLM) in early discovery stage.
10 mM DMSO stock solutions of test compounds were diluted in DMSO to generate 2 mM intermediate stock solution. 250 nL of intermediate stock solution were transferred in duplicate into 3 separate 384 well microtitre plates (assay-ready plates). A mixture of HLM and each substrate was made up. 45 μL of HLM substrate mix was then transferred to each well of an assay ready plate and mixed. The negative (solvent) and positive control (standard inhibitor for CYP 2D6) were included in each assay ready plate. The assay ready plate was warmed to 37° C. in an incubator over 10 minutes. 5 μL pre-warmed NADPH regenerating system was added to each incubation well to start the reaction. Final incubation volume was 50 μL. The assay plate then was placed back in the 37° C. incubator. After 10 minutes incubation, incubates were quenched by addition of 50 μL 100% acetonitrile containing internal standards (20 ng/mL D3-Dextrorphan). The supernatants were collected for RapidFire/MS/MS analysis.
RapidFire online solid phase extraction/sample injection system (Agilent) coupled with API4000 triple quadrupole mass spectrometer (AB Sciex) were used for sample analysis. The mobile phase composed of acetonitrile and water supplemented with 0.1% formic acid. A C4 solid phase extraction cartridge is used for sample separation. MS detection is achieved in positive ion MRM mode.
Peak areas for substrate, metabolite and internal standard are determined using the RapidFire integrator software (version 3.6.12009.12296). Peak area ratios (PAR) of metabolite and internal standard (stable-labelled metabolite) are then calculated. The measurement window for each experiment is then defined:
PAR (0% activity)=average PAR for all incubations containing concentrated inhibitor;
Par (100% activity)=average PAR for all incubations containing no inhibitor (DMSO controls);
% Activity (test inhibitor)=
[PAR(test inhibitor)−PAR(0% activity)]/[PAR(100% activity)−PAR(0% activity)]; % Inhibition (test inhibitor)=100−% Activity (test inhibitor).

[2] = target: T2, TLR9 (Homo sapiens, UniProt Q9NR96); assay: HEK293-Blue-hTLR-9 cells assay; format: cell-based; design: host or cells: HEK293 (HEK-Blue hTLR9); conditions: HEK293-Blue-hTLR9 cells, ODN2006 stimulation, 20 hrs, SEAP reporter; read-out: HEK/hTLR9 IC50
T2 sequence (Q9NR96 26-1032): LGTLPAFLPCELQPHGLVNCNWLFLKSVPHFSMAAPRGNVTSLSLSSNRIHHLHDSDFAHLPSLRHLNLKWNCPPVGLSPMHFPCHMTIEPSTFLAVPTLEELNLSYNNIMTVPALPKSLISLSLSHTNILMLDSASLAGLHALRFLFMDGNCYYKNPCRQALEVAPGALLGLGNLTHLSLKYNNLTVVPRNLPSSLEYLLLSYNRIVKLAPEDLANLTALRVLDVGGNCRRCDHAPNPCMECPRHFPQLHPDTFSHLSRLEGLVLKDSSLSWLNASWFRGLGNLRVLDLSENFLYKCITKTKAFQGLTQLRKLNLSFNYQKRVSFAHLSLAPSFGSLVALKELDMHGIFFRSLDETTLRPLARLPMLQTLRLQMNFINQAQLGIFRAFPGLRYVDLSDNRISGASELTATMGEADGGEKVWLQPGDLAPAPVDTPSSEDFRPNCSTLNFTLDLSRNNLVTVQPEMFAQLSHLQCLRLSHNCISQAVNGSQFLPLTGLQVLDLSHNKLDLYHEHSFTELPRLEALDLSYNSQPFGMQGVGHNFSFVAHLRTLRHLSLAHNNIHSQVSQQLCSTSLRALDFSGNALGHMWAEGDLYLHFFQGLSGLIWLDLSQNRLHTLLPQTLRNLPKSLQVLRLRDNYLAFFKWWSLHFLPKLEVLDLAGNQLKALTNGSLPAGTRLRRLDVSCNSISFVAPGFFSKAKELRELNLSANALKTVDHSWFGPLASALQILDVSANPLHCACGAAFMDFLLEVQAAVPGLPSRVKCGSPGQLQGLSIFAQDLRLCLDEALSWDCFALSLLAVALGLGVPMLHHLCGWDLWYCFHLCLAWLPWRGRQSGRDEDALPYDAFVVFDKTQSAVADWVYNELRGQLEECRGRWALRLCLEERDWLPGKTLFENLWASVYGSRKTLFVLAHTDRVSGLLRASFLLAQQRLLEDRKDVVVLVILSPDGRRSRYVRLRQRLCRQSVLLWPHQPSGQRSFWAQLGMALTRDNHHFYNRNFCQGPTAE
Source text: HEK293-Blue-hTLR-9 Cells Assay:
A stable HEK293-Blue-hTLR-9 cell line was purchased from InvivoGen (Cat. #: hkb-htlr9, San Diego, Calif., USA). These cells were originally designed for studying the stimulation of human TLR9 by monitoring the activation of NF-κB. A SEAP (secreted embryonic alkaline phosphatase) reporter gene was placed under the control of the IFN-β minimal promoter fused to five NF-κB and AP-1-binding sites. The SEAP was induced by activating NF-κB and AP-1 via stimulating HEK-Blue hTLR9 cells with TLR9 ligands. Therefore the reporter expression was declined by TLR9 antagonist under the stimulation of a ligand, such as ODN2006 (Cat. #: tlr1-2006-1, Invivogen, San Diego, Calif., USA), for incubation of 20 hrs. The cell culture supernatant SEAP reporter activity was determined using QUANTI-Blue™ kit (Cat. #: rep-01, Invivogen, San Diego, Calif., USA) at a wavelength of 640 nm, a detection medium that turns purple or blue in the presence of alkaline phosphatase.
HEK293-Blue-hTLR9 cells were incubated at a density of 250,000-450,000 cells/mL in a volume of 170 μL in a 96-well plate in Dulbecco's Modified Eagle's medium (DMEM) containing 4.5 g/L glucose, 50 U/mL penicillin, […], 2 mM L-glutamine, 10% (v/v) heat-inactivated fetal bovine serum with addition of 20 μL test compound in a serial dilution in the presence of final DMSO at 1% and 10 μL of 20 uM ODN2006 in above DMEM, perform incubation under 37° C. in a CO2 incubator for 20 hrs. Then 20 μL of the supernatant from each well was incubated with 180 μL Quanti-blue substrate solution at 37° C. for 2 h and the absorbance was read at 620-655 nm using a spectrophotometer. The signaling pathway that TLR9 activation leads to downstream NF-κB activation has been widely accepted, and therefore similar reporter assay was modified for evaluating TLR9 antagonist.

T1 sequence (P10635 whole entry): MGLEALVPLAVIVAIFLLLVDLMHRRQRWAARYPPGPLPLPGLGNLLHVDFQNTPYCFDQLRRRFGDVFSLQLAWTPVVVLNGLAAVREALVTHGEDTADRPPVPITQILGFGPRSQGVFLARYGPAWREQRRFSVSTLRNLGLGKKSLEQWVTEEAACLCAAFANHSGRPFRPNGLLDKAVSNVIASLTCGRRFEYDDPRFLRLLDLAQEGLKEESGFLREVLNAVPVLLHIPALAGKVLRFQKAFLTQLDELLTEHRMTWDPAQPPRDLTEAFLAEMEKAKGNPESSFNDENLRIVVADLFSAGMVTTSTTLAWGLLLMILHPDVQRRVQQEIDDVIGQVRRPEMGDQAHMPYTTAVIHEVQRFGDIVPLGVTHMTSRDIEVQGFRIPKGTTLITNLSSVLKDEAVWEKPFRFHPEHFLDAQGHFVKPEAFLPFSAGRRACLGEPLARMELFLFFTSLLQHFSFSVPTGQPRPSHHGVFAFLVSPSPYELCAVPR

SMILES: C[C@@H]1Cc2nn(C3CN(C[C@H]4CN(c5ccc(C#N)c6ncccc56)C[C@@H](C)O4)C3)cc2CN1 [Example 17, 5-[(2R,6S)-2-methyl-6-[[3-[(6R)-6-methyl-4,5,6,7-tetrahydropyrazolo[4,3-c]pyridin-2-yl]azetidin-1-yl]methyl]morpholin-4-yl]quinoline-8-carbonitrile]
- inhibition at 10 min, 10 µM [1]: 1.5%
- IC50 [2]: 88 nM

SMILES: CC(C)N1CCc2cnn(C3CN(C[C@H]4CN(c5ccc(C#N)c6ncccc56)C[C@@H](C)O4)C3)c2C1 [Example 8, 5-[(2S,6R)-2-[[3-(6-isopropyl-5,7-dihydro-4H-pyrazolo[3,4-c]pyridin-1-yl)azetidin-1-yl]methyl]-6-methyl-morpholin-4-yl]quinoline-8-carbonitrile]
- inhibition at 10 min, 10 µM [1]: 11%
- IC50 [2]: 125 nM

SMILES: C[C@@H]1CN(c2ccc(C#N)c3ncccc23)C[C@H](CN2CC(n3cc4c(n3)[C@@H](C)NCC4)C2)O1 (single isomer, unassigned) [Example 33]
- IC50 [2]: 34 nM

SMILES: C[C@@H]1CN(c2ccc(C#N)c3ncccc23)C[C@H](CN2CC(n3cc4c(n3)[C@H](C)NCC4)C2)O1 (single isomer, unassigned) [Example 34]
- inhibition at 10 min, 10 µM [1]: -11.5%
- IC50 [2]: 36 nM

SMILES: C[C@@H]1CN(c2ccc(C#N)c3ncccc23)C[C@H](CN2CC(n3cc4c(n3)CCN[C@@H]4C)C2)O1 [Example 21, 5-[(2R,6S)-2-methyl-6-[[3-[(4R)-4-methyl-4,5,6,7-tetrahydropyrazolo[4,3-c]pyridin-2-yl]azetidin-1-yl]methyl]morpholin-4-yl]quinoline-8-carbonitrile]
- inhibition at 10 min, 10 µM [1]: 10.5%
- IC50 [2]: 80 nM

SMILES: C[C@@H]1CN(c2ccc(C#N)c3ncccc23)C[C@H](CN2CC(n3cc4c(n3)CN[C@@H](C)C4)C2)O1 (single isomer, unassigned) [Example 29]
- IC50 [2]: 72 nM

SMILES: C[C@@H]1CN(c2ccc(C#N)c3ncccc23)C[C@H](CN2CC(n3cc4c(n3)[C@H](C)CNC4)C2)O1 (single isomer, unassigned) [Example 25]
- IC50 [2]: 82 nM

SMILES: C[C@@H]1CN(c2ccc(C#N)c3ncccc23)C[C@H](CN2CC(n3cc4c(n3)C(C)(C)CNC4)C2)O1 [Example 24, 5-[(2S,6R)-2-[[3-(7,7-dimethyl-5,6-dihydro-4H-pyrazolo[4,3-c]pyridin-2-yl)azetidin-1-yl]methyl]-6-methyl-morpholin-4-yl]quinoline-8-carbonitrile]
- IC50 [2]: 98 nM

SMILES: C[C@@H]1CN(c2ccc(C#N)c3ncccc23)C[C@H](CN2CCC(n3ncc4c3CCNC4)CC2)O1 [Example 35, 5-[(2R,6S)-2-methyl-6-[[4-(4,5,6,7-tetrahydropyrazolo[4,3-c]pyridin-1-yl)-1-piperidyl]methyl]morpholin-4-yl]quinoline-8-carbonitrile]
- IC50 [2]: 82 nM

Results, then the compound that gave them:

- inhibition at 10 min, 10 µM [1]: 6%
- IC50 [2]: 78 nM
SMILES: Cc1nn(C2CN(C[C@H]3CN(c4ccc(C#N)c5ncccc45)C[C@@H](C)O3)C2)c2c1CNCC2 [Example 12, 5-[(2R,6S)-2-methyl-6-[[3-(3-methyl-4,5,6,7-tetrahydropyrazolo[4,3-c]pyridin-1-yl)azetidin-1-yl]methyl]morpholin-4-yl]quinoline-8-carbonitrile]

- inhibition at 10 min, 10 µM [1]: 3%
- IC50 [2]: 118 nM
SMILES: Cc1c2c(nn1C1CN(C[C@H]3CN(c4ccc(C#N)c5ncccc45)C[C@@H](C)O3)C1)CCNC2 [Example 13, 5-[(2R,6S)-2-methyl-6-[[3-(3-methyl-4,5,6,7-tetrahydropyrazolo[4,3-c]pyridin-2-yl)azetidin-1-yl]methyl]morpholin-4-yl]quinoline-8-carbonitrile]

- inhibition at 10 min, 10 µM [1]: -6%
- IC50 [2]: 76 nM
SMILES: C[C@@H]1CN(c2ccc(C#N)c3ncccc23)C[C@H](CN2CC(n3ncc4c3CCN[C@@H]4C)C2)O1 [Example 20, 5-[(2R,6S)-2-methyl-6-[[3-[(4R)-4-methyl-4,5,6,7-tetrahydropyrazolo[4,3-c]pyridin-1-yl]azetidin-1-yl]methyl]morpholin-4-yl]quinoline-8-carbonitrile]

- IC50 [2]: 83 nM
SMILES: Cc1c2c(nn1C1CN(C[C@H]3CN(c4ccc(C#N)c5ncccc45)C[C@@H](C)O3)C1)CNCC2 [Example 43, 5-[(2R,6S)-2-methyl-6-[[3-(3-methyl-4,5,6,7-tetrahydropyrazolo[3,4-c]pyridin-2-yl)azetidin-1-yl]methyl]morpholin-4-yl]quinoline-8-carbonitrile]

- IC50 [2]: 276 nM
SMILES: Cc1nn(C2CN(C[C@H]3CN(c4ccc(C#N)c5ncccc45)C[C@@H](C)O3)C2)c2c1CN(C)CC2 [Example 14, 5-[(2S,6R)-2-[[3-(3,5-dimethyl-6,7-dihydro-4H-pyrazolo[4,3-c]pyridin-1-yl)azetidin-1-yl]methyl]-6-methyl-morpholin-4-yl]quinoline-8-carbonitrile]

- IC50 [2]: 57 nM
SMILES: C[C@@H]1CN(c2ccc(C#N)c3ncccc23)C[C@H](CN2CC(n3ncc4c3CCNC4)C2)O1 [Example 1, 5-[(2R,6S)-2-methyl-6-[[3-(4,5,6,7-tetrahydropyrazolo[4,3-c]pyridin-1-yl)azetidin-1-yl]methyl]morpholin-4-yl]quinoline-8-carbonitrile]

- IC50 [2]: 143 nM
SMILES: C[C@@H]1CN(c2ccc(C#N)c3ncccc23)C[C@H](CN2CC(n3ncc4c3CNC4)C2)O1 [Example 10, 5-[(2S,6R)-2-[[3-(5,6-dihydro-4H-pyrrolo[3,4-c]pyrazol-1-yl)azetidin-1-yl]methyl]-6-methyl-morpholin-4-yl]quinoline-8-carbonitrile]

From patent publication US20210300924A1, “5-[6-[[3-(4,5,6,7-TETRAHYDROPYRAZOLO[4,3-C]PYRIDIN-1-YL)AZETIDIN-1-YL]METHYL]MORPHOLIN-4-YL]QUINOLINE-8-CARBONITRILE DERIVATIVES AND SIMILAR COMPOUNDS AS TLR7-9 ANTAGONISTS FOR TREATING SYSTEMIC LUPUS ERYTHEMATOSUS” (Hoffmann-La Roche Inc., priority 2018, published 2021)
